In patent publication US10946024B2, “Method for treating cancer” (Epizyme, Inc., priority 2014, dated 2021):

How the values were obtained:
[1] = test system: H3K27me3 in HS-SY-II xenograft; test: H3K27me3 by ELISA in HS-SY-II xenograft tumors harvested on Day 28 (second study); type: in vivo, mice; conditions: Day 28, 3 h after the last dose
Description: FIGS. 10A to 10C show mean in vivo tumor volumes for athymic nude mice bearing HS-SY-II xenografts. In a first study, mice were dosed with either vehicle (oral for 28 days or iv on Day 1 and Day 22), Compound A (oral: 125 mg/kg, 250 mg/kg, or 500 mg/kg for 28 days), or Doxorubicin (iv: 10 mg/kg, Day 1 and Day 22); tumor volumes were measured twice a week (FIGS. 10A and 10B). In a second study, mice were dosed with either vehicle (oral for 28 days), Compound A (oral: 250 mg/kg or 500 mg/kg for 28 days), Doxorubicin (iv: 10 mg/kg on Day 1 and Day 22), or a combination of Doxorubicin (iv: 10 mg/kg on Day 1 and Day 22) and Compound A (oral: 250 mg/kg for 28 days) (FIG. 10C). Tumors from animals of the second study were harvested on Day 28 (3 h after the last dose) and subjected to H3K27me3 analysis by ELISA (FIG. 10D) or IHC for the proliferation marker Ki67 (FIG. 10E).
For FIG. 10D, tumors were snap-frozen in liquid nitrogen. […] Histones were quantified using the BCA protein assay (23225, Pierce). […] Subsequently, the developed colors in the wells were measured using a plate spectrophotometer (SpectraMax 250, Molecular Devices) at 450 nm (reference wavelength 650 nm). The H3K27me3 levels were adjusted to total histone H3, and expressed as fold changes to vehicle control. […] Histones were extracted and quantified, and the levels of H3K27me3 were analyzed as described above. […]

[2] = test system: ATF3, EGR1 expression in SW982 cells; test: Gene expression changes in vitro by RT-PCR, normalized to GAPDH; type: cell-based, human; conditions: SW982 in vitro culture
Description: HS-SY-II and SW982 cells were treated with EZH2 inhibitors (Compound A or EPZ-011989) and collected at the indicated time points. Total RNA isolation and cDNA synthesis were performed using the TaqMan Gene Expression Cells-to-CT kit (4399002, Life technologies) according to the manufacturer's protocol. ATF3, EGR1, CDKN2A and GAPDH expression were analyzed by using the TaqMan Gene Expression Assays (Life technologies, 4331182) and the TaqMan Probes (Hs00231069_m1, Hs00152928_m1, Hs00233365_m1, and Hs99999905_m1, respectively).

[3] = test system: HLA genes, Fas, KLRD1 expression in synovial sarcoma PDX tumors; conditions: 400 mg/kg BID, PDX tumors harvested on day 35
Description: Tumor samples were collected at approximately 3 hours after the last dose from mice used in analysis for PK values and PD alterations. The tumor samples were stored using RNAlater (AM7020, Life technologies). Total RNA isolation and the reverse transcription were performed by RNeasy Mini Kit (74104, Qiagen) and High capacity cDNA Reverse Transcription kit (4368814, Life technologies) according to the manufacturer's instruction. The cDNA samples were used for real time-PCR as described above. The expression levels were adjusted to GAPDH and expressed as fold changes to vehicle control (FIG. 9). Additionally or alternatively, total RNAs were isolated from frozen tumor samples. The TruSeq™ RNA Sample Prep Kit (Illumina) was used to build cDNA library for paired-end sequencing on the Illumina HiSeq (details described in Illumina TruSeq RNA Sample Preparation Guide). […] Paired-end reads from ˜50M clusters per sample were generated using TruSeq SBS kit on the Illumina HiSeq.
Raw sequencing reads in FASTQ format was aligned to human genome hg19 as well as mouse genome mm10. Transcriptomic quantification was carried out with the RSEM v1.1.13 program, using USCS KnownGene transcriptome as reference. […]
The patient-derived xenograft (PDX) models CTG-0331 and CTG-0771 are low passage Champions TumorGraft™ models representing human synovial sarcoma. […] Tumor size was measured twice weekly. […]

[4] = test system: H3K27me3 in HS-SY-II xenograft; test: H3K27me3 in tumor of HS-SY-II xenograft, 7 days twice daily oral dosing (ELISA); type: in vivo, mice; conditions: for H3K27me3 in tumor, Mean 2 (fold change to vehicle) / H3K27me3 in tumor, Mean Diff. vehicle vs. treated: 7 days; for H3K27me3 in tumor, Dunnett's test Significant?: alpha 0.05
Description: HS-SY-II cells were harvested during mid-log phase growth, and resuspended in Hank balanced salt solution with 50% Matrigel (BD Biosciences). Balb/C-nu mice (Charles River Laboratories Japan) received 1×10^7 cells (0.1 mL cell suspension) subcutaneously in the right flank. Mice carrying tumors of approximately 200 mm^3 (31 days after injection) were sorted into treatment groups with similar mean tumor volumes. Compound A or vehicle (0.5% MC+0.1% Tween-80 in water) was administered at the indicated doses on twice a day for 7 days by oral gavage. Each dose was delivered in a volume of 0.2 mL/20 g mouse (10 mL/kg), and adjusted for the last recorded weight of individual animals. Peripheral blood samples were collected at approximately 5 minutes before and 3 hours after the last dose from Compound A-treated mice. After obtaining plasma samples by centrifugation, the analysis for plasma concentrations of Compound A was conducted by the liquid chromatography-tandem mass spectrometry (LC/MS/MS) method. The UPLC system (Acquity, Waters) equipped with a mass spectrometer (Quattro premier, MICROMASS) was used for quantification of Compound A. The concentrations are plotted (n=5) in FIG. 7A. Each bar represents a mean of plasma concentration in each group.
For FIG. 10D, tumors were snap-frozen in liquid nitrogen. Frozen tumor samples were cut into a 20 mg pieces and placed in 500 μL of ice cold nuclear extraction buffer (10 mM Tris-HCl, 10 mM MgCl2, 25 mM KCl, 1% Triton X-100, 8.6% Sucrose, plus 1× Halt Protease inhibitor cocktail (1861281, Thermo Scientific)) and homogenized with a handy micro homogenizer. Nuclei were collected by centrifugation at 600 g for 5 minutes at 4° C. and washed once with ice cold PBS. Supernatant was removed and histones extracted for one hour with […] 0.4 N cold sulfuric acid. Extracts were clarified by centrifugation at 10,000 g for 10 minutes at 4° C. and transferred to a fresh microcentrifuge tube containing 1 mL of ice cold acetone. Histones were precipitated at −20° C. for overnight, pelleted by centrifugation at 10,000 g for 10 minutes and resuspended in 100 μl of water. Histones were quantified using the BCA protein assay (23225, Pierce). The diluted histones were coated on Immulon 4HBX plates (3855, Thermo Scientific) overnight and ELISA was performed. Briefly, after blocking with PBS containing 0.05% Tween 20 and 2% bovine serum albumin (BSA), the plates were incubated with H3K27me3 antibody (#9733, Cell Signaling Technology) or total histone H3 antibody (AB1791, Abcam). The plates were further incubated with horseradish peroxidase conjugated anti-rabbit IgG (#7074, Cell Signaling Technology), followed by incubated with TMB substrate (TMBS-0100-01, BioFx Laboratories). Subsequently, the developed colors in the wells were measured using a plate spectrophotometer (SpectraMax 250, Molecular Devices) at 450 nm (reference wavelength 650 nm). The H3K27me3 levels were adjusted to total histone H3, and expressed as fold changes to vehicle control. The values are plotted (n=6) in FIG. 10D. Each bar represents a mean of the values in each group. […] Histones were extracted and quantified, and the levels of H3K27me3 were analyzed as described above. Trimethylation levels of H3K27 in the tumor are plotted (n=5) in FIG. 7B. Each bar represents a mean±SEM of the trimethylation level in each group.

[5] = test system: CDKN2A expression in HS-SY-II xenograft; test: Gene expression changes in vivo in HS-SY-II xenograft by RT-PCR; set-up: species or system mice; conditions: 500 mg/kg oral twice daily for 7 days
Description: Tumor samples were collected at approximately 3 hours after the last dose from mice used in analysis for PK values and PD alterations.

Q: `CCN(c1cc(-c2ccc(CN3CCOCC3)cc2)cc(C(=O)NCc2c(C)cc(C)[nH]c2=O)c1C)C1CCOCC1` [Compound A] was tested. Which “H3K27me3 levels in tumors” value [1] did it give?
A: significantly reduced

Q: And the “ATF3 and EGR1 expression” value [2]?
A: not in SW982

Q: And the “expression of HLA genes, Fas, and KLRD1 relative to vehicle” value [3]?
A: increased

Q: And the “H3K27me3 in tumor, Dunnett's test Summary” value ([4]; 125 mg/kg)?
A: * * *

Q: What about the “H3K27me3 in tumor, Mean 2 (fold change to vehicle)” value (shortened to “H3K27me3 … (fold change to vehicle)”) ([4]; 125 mg/kg oral twice daily) of the same compound?
A: 0.7

Q: And the “H3K27me3 in tumor, Mean Diff. vehicle vs. treated” value ([4]; 125 mg/kg oral twice daily)?
A: 0.3

Q: And the “H3K27me3 in tumor, Dunnett's test Significant?” value ([4]; 125 mg/kg)?
A: Yes

Q: And the “H3K27me3 in tumor, Dunnett's test Summary” value ([4]; 250 mg/kg)?
A: * * *

Q: And the “H3K27me3 … (fold change to vehicle)” value ([4]; 250 mg/kg oral twice daily)?
A: 0.55

Q: What about the “H3K27me3 in tumor, Mean Diff. vehicle vs. treated” value ([4]; 250 mg/kg oral twice daily) of the same compound?
A: 0.45

Q: What about the “H3K27me3 in tumor, Dunnett's test Significant?” value ([4]; 250 mg/kg) of the same compound?
A: Yes

Q: What about the “H3K27me3 in tumor, Dunnett's test Summary” value ([4]; 500 mg/kg) of the same compound?
A: * * *

Q: What about the “H3K27me3 … (fold change to vehicle)” value ([4]; 500 mg/kg oral twice daily) of the same compound?
A: 0.304

Q: And the “H3K27me3 in tumor, Mean Diff. vehicle vs. treated” value ([4]; 500 mg/kg oral twice daily)?
A: 0.696

Q: And the “H3K27me3 in tumor, Dunnett's test Significant?” value ([4]; 500 mg/kg)?
A: Yes

Q: And the “H3K27me3 levels in tumor tissues” value ([4]; oral twice daily for 7 days)?
A: dose dependent decrease

Q: What about the “CDKN2A expression in tumor” value [5] of the same compound?
A: significantly upregulated
